Measurements as given in paper PMC7211198, “Phase 1b study of a small molecule antagonist of human chemokine (C-C motif) receptor 2 (PF-04136309) in combination with nab-paclitaxel/gemcitabine in first-line treatment of metastatic pancreatic ductal adenocarcinoma” (Investigational New Drugs, 2019).

Experiment: Safety and tolerability (TEAEs, SAEs, DLTs, RP2D) in phase Ib study
Type: in vivo, human
Conditions: 500 mg BID + nab-P/Gem
From the text: Safety assessments included collection of adverse events (AEs), serious AEs (SAEs), vital signs and physical examination, electrocardiogram (12-lead), laboratory assessments, including pregnancy test, and verification of concomitant treatments. A patient was considered as DLT-evaluable if the patient experienced a DLT or if otherwise, in the absence of a DLT, the patient received at least 85% of the planned doses of each study drug in the first 28-day cycle. DLTs were defined as any of the following events occurring in the first cycle of treatment (days 1 through 28) and attributed (i.e., judged to be at least possibly related) to the combination of PF-04136309 plus nab-paclitaxel/gemcitabine, where relationship with the combination could not be ruled out. DLTs were hematologic events of grade 4 neutropenia lasting >5 days; febrile neutropenia; grade ≥ 3 neutropenic infection; grade ≥ 3 thrombocytopenia with grade ≥ 2 bleeding; grade 4 thrombocytopenia; and nonhematologic events of grade 3 toxicities. Exceptions included nausea and vomiting responding to prophylaxis and/or treatment and lasting <7 days from each chemotherapy infusion period; diarrhea responding to treatment and lasting <7 days; grade 3 fatigue lasting <7 days; grade 3 QT interval corrected for heart rate prolongation (>500 msec) persisting after correction of any reversible causes; and/or grade 3 aspartate aminotransferase (AST) and/or alanine aminotransferase (ALT) increase lasting ≤7 days. All grade 4 toxicities and a delay of >2 weeks in receiving the next scheduled cycle due to persistent treatment-related toxicities were considered DLTs. AEs meeting DLT criteria in the dose-expansion phase included grade 3 events of diarrhea, hypokalemia, and dysesthesia and grade 4 hypoxia. […] AEs were graded according to the National Cancer Institute Common Terminology Criteria for Adverse Events, version 4.03.

O=C(NCC(=O)N1CC[C@H](N[C@H]2CC[C@@](O)(c3ccc(-c4ncccn4)cn3)CC2)C1)c1cccc(C(F)(F)F)c1 [PF-04136309]
Alopecia, Grade 4 (all-causality TEAE): 0 n (%) | Alopecia, Grade 5 (all-causality TEAE): 0 n (%) | Alopecia, Total (all-causality TEAE): 10 (58.8) n (%) | Anemia, Grade 1 (all-causality TEAE): 2 (11.8) n (%) | Anemia, Grade 2 (all-causality TEAE): 5 (29.4) n (%) | Anemia, Grade 3 (all-causality TEAE): 4 (23.5) n (%) | Anemia, Grade 4 (all-causality TEAE): 0 n (%) | Anemia, Grade 5 (all-causality TEAE): 0 n (%) | Anemia, Total (all-causality TEAE): 11 (64.7) n (%) | Any AE, Grade 1 (all-causality TEAE): 0 n (%) | Any AE, Grade 2 (all-causality TEAE): 1 (5.9) n (%) | Any AE, Grade 3 (all-causality TEAE): 12 (70.6) n (%) | Any AE, Grade 4 (all-causality TEAE): 3 (17.6) n (%) | Any AE, Grade 5 (all-causality TEAE): 1 (5.9) n (%) | Any AE, Total (all-causality TEAE): 17 (100.0) n (%) | Appetite decrease, Grade 1 (all-causality TEAE): 5 (29.4) n (%) | Appetite decrease, Grade 2 (all-causality TEAE): 0 n (%) | Appetite decrease, Grade 3 (all-causality TEAE): 1 (5.9) n (%) | Appetite decrease, Grade 4 (all-causality TEAE): 0 n (%) | Appetite decrease, Grade 5 (all-causality TEAE): 0 n (%) | Appetite decrease, Total (all-causality TEAE): 6 (35.3) n (%) | Blood alkaline phosphatase, Grade 1 (all-causality TEAE): 1 (5.9) n (%) | Blood alkaline phosphatase, Grade 2 (all-causality TEAE): 4 (23.5) n (%) | Blood alkaline phosphatase, Grade 3 (all-causality TEAE): 2 (11.8) n (%) | Blood alkaline phosphatase, Grade 4 (all-causality TEAE): 0 n (%) | Blood alkaline phosphatase, Grade 5 (all-causality TEAE): 0 n (%) | Blood alkaline phosphatase, Total (all-causality TEAE): 7 (41.2) n (%) | Constipation, Grade 1 (all-causality TEAE): 5 (29.4) n (%) | Constipation, Grade 2 (all-causality TEAE): 2 (11.8) n (%) | Constipation, Grade 3 (all-causality TEAE): 0 n (%) | Constipation, Grade 4 (all-causality TEAE): 0 n (%) | Constipation, Grade 5 (all-causality TEAE): 0 n (%) | Constipation, Total (all-causality TEAE): 7 (41.2) n (%) | Diarrhea, Grade 1 (all-causality TEAE): 4 (23.5) n (%) | Diarrhea, Grade 2 (all-causality TEAE): 2 (11.8) n (%) | Diarrhea, Grade 3 (all-causality TEAE): 1 (5.9) n (%) | Diarrhea, Grade 4 (all-causality TEAE): 0 n (%) | Diarrhea, Grade 5 (all-causality TEAE): 0 n (%) | Diarrhea, Total (all-causality TEAE): 7 (41.2) n (%) | Edema, peripheral, Grade 1 (all-causality TEAE): 7 (41.2) n (%) | Edema, peripheral, Grade 2 (all-causality TEAE): 1 (5.9) n (%) | Edema, peripheral, Grade 3 (all-causality TEAE): 0 n (%) | Edema, peripheral, Grade 4 (all-causality TEAE): 0 n (%) | Edema, peripheral, Grade 5 (all-causality TEAE): 0 n (%) | Edema, peripheral, Total (all-causality TEAE): 8 (47.1) n (%) | Fatigue, Grade 1 (all-causality TEAE): 4 (23.5) n (%) | Fatigue, Grade 2 (all-causality TEAE): 4 (23.5) n (%) | Fatigue, Grade 3 (all-causality TEAE): 5 (29.4) n (%) | Fatigue, Grade 4 (all-causality TEAE): 0 n (%) | Fatigue, Grade 5 (all-causality TEAE): 0 n (%) | Fatigue, Total (all-causality TEAE): 13 (76.5) n (%) | Headache, Grade 1 (all-causality TEAE): 4 (23.5) n (%) | Headache, Grade 2 (all-causality TEAE): 1 (5.9) n (%) | Headache, Grade 3 (all-causality TEAE): 0 n (%) | Headache, Grade 4 (all-causality TEAE): 0 n (%) | Headache, Grade 5 (all-causality TEAE): 0 n (%) | Headache, Total (all-causality TEAE): 5 (29.4) n (%) | Hyperglycemia, Grade 1 (all-causality TEAE): 2 (11.8) n (%) | Hyperglycemia, Grade 2 (all-causality TEAE): 3 (17.6) n (%) | Hyperglycemia, Grade 3 (all-causality TEAE): 3 (17.6) n (%) | Hyperglycemia, Grade 4 (all-causality TEAE): 0 n (%) | Hyperglycemia, Grade 5 (all-causality TEAE): 0 n (%) | Hyperglycemia, Total (all-causality TEAE): 8 (47.1) n (%) | Insomnia, Grade 1 (all-causality TEAE): 7 (41.2) n (%) | Insomnia, Grade 2 (all-causality TEAE): 1 (5.9) n (%) | Insomnia, Grade 3 (all-causality TEAE): 0 n (%) | Insomnia, Grade 4 (all-causality TEAE): 0 n (%) | Insomnia, Grade 5 (all-causality TEAE): 0 n (%) | Insomnia, Total (all-causality TEAE): 8 (47.1) n (%) | Lymphopenia, Grade 1 (all-causality TEAE): 0 n (%) | Lymphopenia, Grade 2 (all-causality TEAE): 0 n (%) | Lymphopenia, Grade 3 (all-causality TEAE): 5 (29.4) n (%) | Lymphopenia, Grade 4 (all-causality TEAE): 0 n (%) | Lymphopenia, Grade 5 (all-causality TEAE): 0 n (%) | Lymphopenia, Total (all-causality TEAE): 5 (29.4) n (%) | Nausea, Grade 1 (all-causality TEAE): 12 (70.6) n (%) | Nausea, Grade 2 (all-causality TEAE): 2 (11.8) n (%) | Nausea, Grade 3 (all-causality TEAE): 0 n (%) | Nausea, Grade 4 (all-causality TEAE): 0 n (%) | Nausea, Grade 5 (all-causality TEAE): 0 n (%) | Nausea, Total (all-causality TEAE): 14 (82.4) n (%) | Neuropathy peripheral, Grade 1 (all-causality TEAE): 8 (47.1) n (%) | Neuropathy peripheral, Grade 2 (all-causality TEAE): 1 (5.9) n (%) | Neuropathy peripheral, Grade 3 (all-causality TEAE): 0 n (%) | Neuropathy peripheral, Grade 4 (all-causality TEAE): 0 n (%) | Neuropathy peripheral, Grade 5 (all-causality TEAE): 0 n (%) | Neuropathy peripheral, Total (all-causality TEAE): 9 (52.9) n (%) | Pyrexia, Grade 1 (all-causality TEAE): 7 (41.2) n (%) | Pyrexia, Grade 2 (all-causality TEAE): 5 (29.4) n (%) | Pyrexia, Grade 3 (all-causality TEAE): 0 n (%) | Pyrexia, Grade 4 (all-causality TEAE): 0 n (%) | Pyrexia, Grade 5 (all-causality TEAE): 0 n (%) | Pyrexia, Total (all-causality TEAE): 12 (70.6) n (%) | Rash, Grade 1 (all-causality TEAE): 7 (41.2) n (%) | Rash, Grade 2 (all-causality TEAE): 1 (5.9) n (%) | Rash, Grade 3 (all-causality TEAE): 0 n (%) | Rash, Grade 4 (all-causality TEAE): 0 n (%) | Rash, Grade 5 (all-causality TEAE): 0 n (%) | Rash, Total (all-causality TEAE): 8 (47.1) n (%) | Vomiting, Grade 1 (all-causality TEAE): 6 (35.3) n (%) | Vomiting, Grade 2 (all-causality TEAE): 1 (5.9) n (%) | Vomiting, Grade 3 (all-causality TEAE): 0 n (%) | Vomiting, Grade 4 (all-causality TEAE): 0 n (%) | Vomiting, Grade 5 (all-causality TEAE): 0 n (%) | Vomiting, Total (all-causality TEAE): 7 (41.2) n (%) | Weight decreased, Grade 1 (all-causality TEAE): 5 (29.4) n (%) | Weight decreased, Grade 2 (all-causality TEAE): 4 (23.5) n (%) | Weight decreased, Grade 3 (all-causality TEAE): 0 n (%) | Weight decreased, Grade 4 (all-causality TEAE): 0 n (%) | Weight decreased, Grade 5 (all-causality TEAE): 0 n (%) | Weight decreased, Total (all-causality TEAE): 9 (52.9) n (%) | Any SAE, Grade 1 (treatment-related SAE): 0 n (%) | Any SAE, Grade 2 (treatment-related SAE): 0 n (%)
